{
  "source": "patent US9532961B2",
  "about": "“Method and kit for administering γ-glutamyl-D-cysteine for the prevention of reperfusion injury following ischemic stroke” (Rosalind Franklin University of Medicine and Science, priority 2005, dated 2017)",
  "key": {"[1]": {"system": "cultured bovine blood-brain barrier endothelial cells", "experiment": "Intracellular calcium (Fluo-4 fluorescence) in cultured blood-brain barrier cells under simulated ischemia-reperfusion", "type": "cell-based", "settings": "20 μM KB-R7943 (reverse Na/Ca exchange inhibition), methanesulphonate", "method": "FIG. 4 is a bar graph of data showing that when cerebral capillary endothelial cells are exposed to ischemic conditions, intracellular calcium concentration increases and remains elevated during reperfusion; the elevation in intracellular calcium is prevented by pharmacological inhibition of the Na/H antiporter. Cultured bovine blood-brain barrier cells were treated as described above (FIG. 2). […] The rise in intracellular calcium observed during reperfusion was prevented by inhibiting Na/H antiport (100 μM DMA). *P<0.05 compared to control. +P<0.05 compared to reperfusion. Values are mean±SD. Intracellular calcium was measured with fluorescent imaging, using Fluo-4.\nFIG. 5 is a bar graph of data showing that when cerebral capillary endothelial cells are exposed to ischemic conditions, intracellular calcium concentration increases and remains elevated during reperfusion; the elevation in intracellular calcium is prevented by pharmacological inhibition of reverse movement of the Na/Ca exchanger. Cultured bovine blood-brain barrier cells were treated as described above (FIG. 2). […] The rise in intracellular calcium observed during reperfusion was prevented by inhibiting reverse movement of Na/Ca exchange (20 μM KB-R7943). *P<0.05 compared to control. +P<0.05 compared to reperfusion. Values are mean±SD. Intracellular calcium was measured with fluorescent imaging, using Fluo-4. […]"}, "heart and kidney": {"system": "heart and kidney", "settings": "heart and kidney (refs. 29, 45); cited from earlier work"}, "Na/Ca exchange": {"target": "T1, Na/Ca exchange (Homo sapiens, UniProt P32418)", "T1 construct": "host or cells: cardiac and renal tissues (as cited)", "settings": "cardiac and renal tissues (ref. 26); cited from earlier work"}},
  "note": "“Also recorded” adds a separate entry of the source.",
  "data": [
    {"molecule": "CS(=O)(=O)O.N=C(N)SCCc1ccc(OCc2ccc([N+](=O)[O-])cc2)cc1", "note": "[KB-R7943, 2-[2-[4-(4-nitrobenzyloxy)phenyl]ethyl]isothiourea methanesulphonate]", "values": [
      {"measurement": "rise in intracellular calcium observed during reperfusion", "setting": "[1]", "result": "prevented; also recorded: inhibits the rise in intracellular calcium"},
      {"measurement": "cytoprotection under conditions of ischemia and reperfusion", "setting": "heart and kidney", "result": "cytoprotective"},
      {"measurement": "direction selectivity of Na/Ca exchange inhibition", "setting": "Na/Ca exchange", "result": "greater affinity for suppressing movement in the reverse direction"},
      {"measurement": "effect on Na/Ca exchange", "setting": "Na/Ca exchange", "result": "inhibits Na/Ca exchange"}
    ]}
  ]
}
